Assay results: patent US11034692B1 (Genentech, Inc., priority 2017, dated 2021)

The molecules below were run against HPK1 (Homo sapiens, UniProt Q92918) (assay: HPK1 Lantha Binding Assay ("Lanth")). Conditions: Table B1-1, read-out: HPK1 Ki (μM) (Lanth).
Chain of HPK1 (Q92918 whole entry, looked up): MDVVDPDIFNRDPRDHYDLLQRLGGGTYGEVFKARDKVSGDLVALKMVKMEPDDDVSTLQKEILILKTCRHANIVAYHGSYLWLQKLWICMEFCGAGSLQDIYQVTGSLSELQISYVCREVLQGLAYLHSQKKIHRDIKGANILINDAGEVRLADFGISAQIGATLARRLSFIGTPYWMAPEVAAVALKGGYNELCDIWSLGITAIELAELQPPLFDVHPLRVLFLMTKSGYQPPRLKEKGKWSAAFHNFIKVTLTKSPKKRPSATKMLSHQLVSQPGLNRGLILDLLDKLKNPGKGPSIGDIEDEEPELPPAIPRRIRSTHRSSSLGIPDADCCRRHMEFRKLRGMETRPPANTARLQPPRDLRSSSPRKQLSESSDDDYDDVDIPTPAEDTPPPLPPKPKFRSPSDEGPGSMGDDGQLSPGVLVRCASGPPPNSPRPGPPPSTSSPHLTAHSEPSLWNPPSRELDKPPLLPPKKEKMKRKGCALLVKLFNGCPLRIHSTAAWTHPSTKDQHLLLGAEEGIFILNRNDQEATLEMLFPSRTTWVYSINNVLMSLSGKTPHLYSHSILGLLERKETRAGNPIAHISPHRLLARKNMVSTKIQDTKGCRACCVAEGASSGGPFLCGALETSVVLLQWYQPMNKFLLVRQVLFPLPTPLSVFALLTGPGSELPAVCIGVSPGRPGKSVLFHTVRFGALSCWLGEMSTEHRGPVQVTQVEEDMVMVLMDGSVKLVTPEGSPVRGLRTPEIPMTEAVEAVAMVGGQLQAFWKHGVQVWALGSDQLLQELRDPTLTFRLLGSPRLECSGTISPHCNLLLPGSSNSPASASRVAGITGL
Procedure, shortened: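 TR-FRET tracer displacement with 2 nM GST-tagged kinase, 2 nM Eu-anti-GST antibody and 15 nM Tracer222 at 23 C. Enzyme–antibody preincubated 1 h with compound, then tracer added for 1 h; 340 nm excitation, 615/665 nm emission. Ki from Morrison fit over an 11-point 5-fold dilution.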
With `Cc1ccncc1-c1cc2cc(NC(=O)C3CC34CN(c3ncccc3C#N)C4)ncc2c(N)n1` (stereo not drawn) [Compound 150, N-(8-amino-6-(4-methylpyridin-3-yl)-2,7-naphthyridin-3-yl)-5-(3-cyanopyridin-2-yl)-5-azaspiro[2.3]hexane-1-carboxamide] the Ki was 0.77 nM. Work on `Cc1cc2c(cc1-c1cc3cc(NC(=O)[C@H]4C[C@@H]4C#N)ncc3c(N)n1)oc(=O)n2C` (racemic) [Compound 142, (±)-trans-N-(8-amino-6-(3,5-dimethyl-2-oxo-2,3-dihydrobenzo[d]oxazol-6-yl)-2,7-naphthyridin-3-yl)-2-cyanocyclopropanecarboxamide] yielded a Ki of 1.4 nM. With `N#C[C@H]1C[C@@H]1C(=O)Nc1cc2cc(-c3cnccc3CCO)nc(N)c2cn1` (racemic) [Compound 191, (±)-trans-N-(8-amino-6-(4-(2-hydroxyethyl)pyridin-3-yl)-2,7-naphthyridin-3-yl)-2-cyanocyclopropanecarboxamide] the Ki was 2.7 nM. `Cc1ccncc1-c1cc2cc(NC3CCNC3)ncc2c(N)n1` (racemic) [Compound 120, (±)-3-(4-methyl-3-pyridyl)-N6-pyrrolidin-3-yl-2,7-naphthyridine-1,6-diamine] showed a Ki of 2400 nM. With `Cc1ccncc1-c1nc(N)c2cnc(NC(=O)[C@H]3C[C@@H]3CC#N)cc2c1Br` (racemic) [Compound 210, (+/−)-N-(8-amino-5-bromo-6-(4-methylpyridin-3-yl)-2,7-naphthyridin-3-yl)-2-(cyanomethyl)cyclopropanecarboxamide] the Ki was 0.258 nM. `Cc1ccncc1-c1cc2cc(NC(=O)[C@@H]3C[C@H]3c3cccnc3)ncc2c(N)n1` (racemic) [Compound 131, (±)-trans-N-[8-amino-6-(4-methyl-3-pyridyl)-2,7-naphthyridin-3-yl]-2-(3-pyridyl)cyclopropane carboxamide] showed a Ki of 0.31 nM. For `CCS(=O)(=O)n1cc([C@H]2C[C@@H]2C(=O)Nc2cc3cc(-c4cnccc4C)nc(N)c3cn2)cn1` (racemic) [Compound 146, (±)-trans-N-[8-amino-6-(4-methyl-3-pyridyl)-2,7-naphthyridin-3-yl]-2-(1-ethylsulfonylpyrazol-4-yl)cyclopropanecarboxamide], the Ki was 0.02 nM. `Cc1c(-c2cc3cc(NC(=O)[C@@H]4C[C@@H]4F)ncc3c(N)n2)cnn1C` (racemic) [Compound 2, (±)-cis-N-(8-amino-6-(1,5-dimethyl-1H-pyrazol-4-yl)-2,7-naphthyridin-3-yl)-2-fluorocyclopropanecarboxamide] was tested, and the Ki was 1.56 nM. `Cc1ccncc1-c1cc2cc(Nc3cnn([C@H]4CCN(C5COC5)C[C@@H]4O)c3)ncc2c(N)n1` (racemic) [Compound 220, (+/−)-trans-4-(4-(8-amino-6-(4-methylpyridin-3-yl)-2,7-naphthyridin-3-ylamino)-1H-pyrazol-1-yl)-1-(oxetan-3-yl)piperidin-3-ol] gave a Ki of 0.592 nM. `Cc1ccncc1-c1cc2cc(NC(=O)Nc3cnn(C(C)C#N)c3)ncc2c(N)n1` (racemic) [Compound 178, 1-[8-amino-6-(4-methyl-3-pyridyl)-2,7-naphthyridin-3-yl]-3-[1-(1-cyanoethyl)pyrazol-4-yl]urea] showed a Ki of 0.25 nM. In the case of `COc1ccc(Cn2cncc2[C@@H]2C[C@H]2C(=O)Nc2cc3cc(-c4cnccc4C)nc(N)c3cn2)cc1` (racemic) [Compound 145, (±)-trans-N-[8-amino-6-(4-methyl-3-pyridyl)-2,7-naphthyridin-3-yl]-2-[3-[(4-methoxyphenyl)methyl]imidazol-4-yl]cyclopropanecarboxamide], the Ki is reported as 2 nM. `Cc1cc(C(N)=O)ccc1-c1cc2cc(NC(=O)[C@@H]3C[C@@H]3F)ncc2c(N)n1` (racemic) [Compound 48, (±)-4-(1-amino-6-((cis)-2-fluorocyclopropanecarboxamido)-2,7-naphthyridin-3-yl)-3-methylbenzamide] gave a Ki of 10.3 nM. Molecule `N#C[C@@H]1C[C@H]1C(=O)Nc1cc2cc(-c3cn[nH]c3)nc(N)c2cn1` (racemic) [Compound 112, (±)-trans-N-(8-amino-6-(1H-pyrazol-4-yl)-2,7-naphthyridin-3-yl)-2-cyanocyclopropane-1-carboxamide] has a Ki of 1.87 nM. `Cc1ccncc1-c1cc2cc(NC(=O)[C@H]3C[C@]34CCNC4)ncc2c(N)n1` (racemic) [Compound 126, (±)-cis-N-(8-amino-6-(4-methylpyridin-3-yl)-2,7-naphthyridin-3-yl)-5-azaspiro[2.4]heptane-1-carboxamide] gave a Ki of 7 nM. Molecule `N#C[C@@H]1C[C@H]1C(=O)Nc1cc2cc(-c3cncc4c3CCCC4O)nc(N)c2cn1` (mixture of isomers) [Compound 99, (±)-trans-N-(8-amino-6-(8-hydroxy-5,6,7,8-tetrahydroisoquinolin-4-yl)-2,7-naphthyridin-3-yl)-2-cyanocyclopropane-1-carboxamide] has a Ki of 70.7 nM. With `COCCN1CC[C@]2(C[C@@H]2C(=O)Nc2cc3cc(-c4cnccc4C)nc(N)c3cn2)C1` (racemic) [Compound 128, (±)-cis-N-(8-amino-6-(4-methylpyridin-3-yl)-2,7-naphthyridin-3-yl)-5-(2-methoxyethyl)-5-azaspiro[2.4]heptane-1-carboxamide] the Ki was 2.5 nM. `Cc1cc(C(=O)O)ncc1-c1cc2cc(NC(=O)[C@H]3C[C@@H]3c3cnn(C)c3)ncc2c(N)n1` (racemic) [Compound 342, (±)-trans-5-(1-amino-6-((1S,2S)-2-(1-methyl-1H-pyrazol-4-yl)cyclopropane-1-carboxamido)-2,7-naphthyridin-3-yl)-4-methylpicolinic acid] showed a Ki of 1.43 nM. Work on `CNC(=O)c1cncc(-c2cc3cc(NC(=O)[C@@H]4C[C@@H]4F)ncc3c(N)n2)c1C` (racemic) [Compound 226, cis-5-(1-amino-6-(-2-fluorocyclopropanecarboxamido)-2,7-naphthyridin-3-yl)-N,4-dimethylnicotinamide] yielded a Ki of 58.6 nM. With `Cc1ccncc1-c1cc2cc(NC(=O)[C@H]3[C@@H]4CCC(C#N)[C@@H]43)ncc2c(N)n1` (stereo partly drawn) [Compound 230, (1R,5R,6S)—N-(8-amino-6-(4-methylpyridin-3-yl)-2,7-naphthyridin-3-yl)-2-cyanobicyclo[3.1.0]hexane-6-carboxamide] the Ki was 0.295 nM. In the case of `Cc1ccncc1-c1nc(N)c2cnc(NC(=O)[C@@H]3C[C@H]3CC#N)cc2c1C` (racemic) [Compound 205, (+/−)-trans-N-(8-amino-5-methyl-6-(4-methylpyridin-3-yl)-2,7-naphthyridin-3-yl)-2-(cyanomethyl)cyclopropanecarboxamide], the Ki is reported as 0.0881 nM.

Same assay, conditions: Table B1-2, read-out: HPK1 Ki, L = Lanth
For `Cc1cc(N2CCC2=O)ncc1-c1cc2cc(NC(=O)[C@H]3C[C@@H]3c3cnn(C)c3)ncc2c(N)n1` (single isomer, unassigned) [Compound 400], the Ki was 1.2 nM. `Cc1cc(-c2ccn(C)n2)ncc1-c1cc2cc(NC(=O)[C@H]3C[C@@H]3c3cnn(C)c3)ncc2c(N)n1` (single isomer, unassigned) [Compound 404] was tested, and the Ki was 1.9 nM. For `Cc1cccc(CC#N)c1-c1cc2cc(NC(=O)[C@@H]3C[C@H]3c3cnn(C)c3)ncc2c(N)n1` (single isomer, unassigned) [Compound 381], the Ki was 8.1 nM. Work on `Cc1ccncc1-c1cc2cc(NC(=O)C3CC34CC4)ncc2c(N)n1` (stereo not drawn) [Compound 413, N-(8-amino-6-(4-methylpyridin-3-yl)-2,7-naphthyridin-3-yl)spiro[2.2]pentane-1-carboxamide] yielded a Ki of 15 nM.
